Measured values taken from the supplement of paper PMC10307832.

How the values were obtained:
Assay in all cases: relative viability (nuclei count vs DMSO), 5 days (fraction); higher = more cells survive
Adavosertib + Foretinib = compound: C=CCn1c(=O)c2cnc(Nc3ccc(N4CCN(C)CC4)cc3)nc2n1-c1cccc(C(C)(C)O)n1 [Adavosertib] + COc1cc2c(Oc3ccc(NC(=O)C4(C(=O)Nc5ccc(F)cc5)CC4)cc3F)ccnc2cc1OCCCN1CCOCC1 [Foretinib] (partner 0.25 µM)
In short: (§1)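 Relative viability was taken as the ratio of nuclei in treated wells to nuclei in vehicle wells. Lung cancer cell lines in 1536-well plates received compounds by pin tool one day after seeding, either one drug alone or a fixed anchor-drug dose plus five library-drug doses (not always all listed) in √10 steps. Nuclei were counted on 4× images after 5 days of treatment, and values are medians of duplicate plates.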

Nelarabine + Trametinib = compound: COc1nc(N)nc2c1ncn2[C@@H]1O[C@H](CO)[C@@H](O)[C@@H]1O [Nelarabine] + CC(=O)Nc1cccc(-n2c(=O)n(C3CC3)c(=O)c3c(Nc4ccc(I)cc4F)n(C)c(=O)c(C)c32)c1 [Trametinib] (partner 0.02 µM)
In short: as §1

Adavosertib + Crizotinib = compound: C=CCn1c(=O)c2cnc(Nc3ccc(N4CCN(C)CC4)cc3)nc2n1-c1cccc(C(C)(C)O)n1 [Adavosertib] + C[C@@H](Oc1cc(-c2cnn(C3CCNCC3)c2)cnc1N)c1c(Cl)ccc(F)c1Cl [Crizotinib] (partner 1 µM)
In short: as §1

Nelarabine + Pictilisib = compound: COc1nc(N)nc2c1ncn2[C@@H]1O[C@H](CO)[C@@H](O)[C@@H]1O [Nelarabine] + CS(=O)(=O)N1CCN(Cc2cc3nc(-c4cccc5[nH]ncc45)nc(N4CCOCC4)c3s2)CC1 [Pictilisib] (partner 1 µM)
In short: as §1

Cell Line	relative viability (Adavosertib + Foretinib; first compound 0.01 µM)	relative viability (Adavosertib + Foretinib; first compound 0.03162 µM)	relative viability (Adavosertib + Foretinib; first compound 0.1 µM)	relative viability (Adavosertib + Foretinib; first compound 0.3162 µM)	relative viability (Nelarabine + Trametinib; first compound 0.01 µM)	relative viability (Nelarabine + Trametinib; first compound 0.03162 µM)	relative viability (Nelarabine + Trametinib; first compound 0.1 µM)	relative viability (Nelarabine + Trametinib; first compound 0.3162 µM)	relative viability (Nelarabine + Trametinib; first compound 1 µM)	relative viability (Adavosertib + Crizotinib; first compound 0.01 µM)	relative viability (Adavosertib + Crizotinib; first compound 0.03162 µM)	relative viability (Adavosertib + Crizotinib; first compound 0.1 µM)	relative viability (Adavosertib + Crizotinib; first compound 0.3162 µM)	relative viability (Nelarabine + Pictilisib; first compound 0.01 µM)	relative viability (Nelarabine + Pictilisib; first compound 0.03162 µM)	relative viability (Nelarabine + Pictilisib; first compound 0.1 µM)	relative viability (Nelarabine + Pictilisib; first compound 0.3162 µM)	relative viability (Nelarabine + Pictilisib; first compound 1 µM)
NCI-H1623	0.863	0.863	0.854	0.933	–	–	–	–	–	–	–	–	–	–	–	–	–	–
HARA	0.977	0.892	0.84	0.335	0.412	0.703	0.676	0.754	0.718	1	1.06	1.04	0.354	0.457	0.346	0.336	0.452	0.354
NCI-H2126	1.27	1.22	1.15	1.16	0.666	0.612	0.599	0.52	0.538	1.05	1.01	1.08	1.07	0.517	0.48	0.453	0.483	0.5
NCI-H1703	0.399	0.43	0.335	0.203	–	–	–	–	–	0.853	0.712	0.978	0.103	0.248	–	0.237	0.211	0.227
UMC-11	0.981	1.06	1.06	1.08	0.855	0.659	0.755	0.767	0.843	0.63	0.588	0.739	0.623	1.05	0.729	0.874	1.02	0.898
PC-14	0.934	0.957	0.933	0.636	0.894	0.87	0.766	0.844	0.774	0.91	1.02	1.02	0.646	1.17	0.759	0.563	0.815	0.653
NCI-H1792	–	–	–	–	0.541	0.513	0.418	0.373	0.508	0.978	0.881	1.05	1.05	0.348	–	0.323	0.326	0.323
NCI-H1651	0.729	0.95	0.812	0.723	0.948	0.909	0.842	0.827	0.821	0.836	0.882	0.897	0.899	0.683	0.476	0.63	0.699	0.736
HCC-15	1.04	0.936	1.2	1.25	0.431	0.427	0.307	0.42	0.386	0.826	0.818	0.96	0.967	0.893	0.669	0.76	0.871	0.832
NCI-H2170	1.02	0.603	0.923	1.07	1.26	0.804	0.997	0.944	0.911	1.23	1.17	1.19	1.35	0.326	0.253	0.253	0.34	0.316
SW 1573	0.953	0.914	1.13	1.2	0.667	0.599	0.566	0.631	0.512	0.797	0.879	1.09	0.845	0.68	0.53	0.535	0.485	0.639
NCI-H661	1.07	1.07	1.12	0.839	0.651	0.718	0.628	0.668	0.756	1.08	1.1	1.13	1.04	0.345	0.362	0.462	0.388	0.354
PC-3 [JPC-3]	0.957	1.04	1.04	1.04	0.753	0.808	0.683	0.672	0.775	0.996	0.905	1.06	1	0.599	0.853	0.7	0.895	0.749
NCI-H358	0.764	0.682	0.592	0.285	0.124	0.14	0.109	0.149	0.123	0.542	0.559	0.507	0.309	0.374	0.3	0.294	0.362	0.328
COR-L23	1.02	0.997	1.08	0.644	0.779	0.558	0.516	0.612	0.777	0.69	0.731	0.797	0.304	1.13	0.635	0.738	0.934	0.864
IA-LM	0.945	1.18	1.43	1.37	–	–	–	–	–	0.868	–	1.02	0.784	0.369	0.343	0.22	0.259	0.328
ABC-1	0.909	1.31	1.39	1.03	–	–	–	–	–	1.16	1.19	1.05	1.31	0.901	0.828	0.584	1.01	0.756
RERF-LC-KJ	0.857	0.844	0.882	0.954	1.03	1	0.934	0.986	0.862	0.795	0.815	0.94	0.925	0.582	0.652	0.559	0.578	0.422
NCI-H1563	0.882	0.949	1.05	0.931	–	–	–	–	–	0.837	0.942	0.936	0.924	0.605	0.634	0.641	0.67	0.626
A-427	0.929	1.02	1.09	0.851	0.835	0.772	0.728	0.721	0.773	0.972	0.931	1.02	0.962	0.928	0.749	0.745	0.716	0.714
EKVX	0.743	1.15	0.755	0.748	0.402	0.306	0.587	0.282	0.472	1.13	0.952	0.776	1.06	0.547	0.373	0.359	0.508	0.474

Cell Line	relative viability (Adavosertib + Foretinib; first compound 0.01 µM)	relative viability (Adavosertib + Foretinib; first compound 0.03162 µM)	relative viability (Adavosertib + Foretinib; first compound 0.1 µM)	relative viability (Adavosertib + Foretinib; first compound 0.3162 µM)	relative viability (Nelarabine + Trametinib; first compound 0.01 µM)	relative viability (Nelarabine + Trametinib; first compound 0.03162 µM)	relative viability (Nelarabine + Trametinib; first compound 0.1 µM)	relative viability (Nelarabine + Trametinib; first compound 0.3162 µM)	relative viability (Nelarabine + Trametinib; first compound 1 µM)	relative viability (Adavosertib + Crizotinib; first compound 0.01 µM)	relative viability (Adavosertib + Crizotinib; first compound 0.03162 µM)	relative viability (Adavosertib + Crizotinib; first compound 0.1 µM)	relative viability (Adavosertib + Crizotinib; first compound 0.3162 µM)	relative viability (Nelarabine + Pictilisib; first compound 0.01 µM)	relative viability (Nelarabine + Pictilisib; first compound 0.03162 µM)	relative viability (Nelarabine + Pictilisib; first compound 0.1 µM)	relative viability (Nelarabine + Pictilisib; first compound 0.3162 µM)	relative viability (Nelarabine + Pictilisib; first compound 1 µM)
LOU-NH91	0.875	0.945	0.943	0.88	0.856	0.731	0.769	0.804	0.794	0.709	0.712	0.788	0.726	0.515	0.464	0.487	0.527	0.54
SW 900	–	0.727	0.853	0.907	0.642	0.778	0.765	0.777	0.753	–	–	–	–	–	–	–	–	–
201T	1.28	1.14	–	1.23	0.781	0.775	0.737	0.712	0.73	1.05	0.992	1.08	1.07	0.792	0.556	0.718	0.714	0.705
NCI-H1793	0.633	0.599	0.644	0.508	0.474	–	0.421	0.424	0.466	–	–	–	–	0.367	0.35	0.293	0.314	0.256
LXF-289	1.01	0.973	0.973	1.03	0.714	0.74	0.673	0.667	0.73	0.8	0.841	0.88	0.849	0.739	0.841	0.845	0.801	0.751
ChaGo-K-1	0.856	0.951	0.941	1.02	1	0.748	0.935	0.845	0.899	1.05	1.05	1.21	1.12	0.699	0.611	0.934	0.678	0.743
NCI-H23	1.04	0.891	0.75	0.261	0.403	0.404	0.343	0.378	0.409	0.532	0.558	0.517	0.432	0.494	0.499	0.528	0.459	0.51
NCI-H1975	0.967	0.962	0.878	0.778	0.355	0.35	0.36	0.396	0.381	0.962	0.952	0.904	0.625	0.325	0.295	0.369	0.335	0.331
NCI-H3122	0.982	0.931	0.956	0.996	0.307	0.163	–	0.23	0.237	0.287	0.241	0.294	0.271	0.588	0.388	–	0.63	0.611
NCI-H838	1.06	1.06	1.04	1.19	0.572	0.586	0.473	0.621	0.575	0.872	0.847	0.82	0.77	0.481	0.331	0.428	0.474	0.438
H3255	0.892	0.851	0.921	1.04	0.713	0.706	0.619	0.651	0.806	0.87	1.04	1.04	0.936	0.534	0.494	0.456	0.394	0.477
NCI-H2085	0.785	0.954	0.887	0.921	0.391	0.518	0.514	0.612	0.544	0.748	0.866	0.946	0.85	0.462	0.372	0.536	0.46	0.455
Calu-6	0.905	0.956	0.91	0.311	–	–	–	–	–	0.777	0.746	0.916	0.343	1.15	0.856	0.977	0.891	0.962
NCI-H1648	–	–	–	–	–	0.656	–	0.451	0.477	–	–	–	–	–	–	–	–	–
NCI-H1395	0.922	0.932	0.989	0.83	1.12	1.1	0.946	1.05	1.12	–	–	–	–	0.729	0.646	0.659	0.694	0.618
EBC-1	0.111	0.101	0.115	0.0875	–	–	–	–	–	0.206	0.192	0.206	0.175	0.372	0.284	0.407	0.329	0.461
A549	1.04	0.984	1.24	0.838	–	–	–	–	–	0.733	0.807	0.891	0.702	0.729	0.546	0.499	0.577	0.463
NCI-H2342	1.14	1.18	1.19	1.04	0.87	0.825	0.847	0.701	0.907	–	–	–	–	–	–	–	–	–
HCC-44	–	–	–	–	1.14	1.05	1.01	1.03	0.983	0.827	0.856	0.946	0.949	0.708	0.829	0.569	0.597	0.529
NCI-H1299	1.08	1.11	1.1	0.437	–	–	–	–	–	0.929	0.936	0.96	0.49	1.06	0.899	0.857	0.861	0.757
NCI-H522	–	–	–	–	0.82	1.03	0.662	0.726	0.742	–	–	–	–	–	–	–	–	–
